# Read-outs that look alike come from different tables or passages of the source.
# Legend:
# [1] = system: human cancer cell lines and murine P388; assay: cells; format: cell-based; details: for IC50: Mus musculus
# Protocol: (§1) Cytotoxicity assays were performed by the sulforhodamine B method, in which inhibition of formation of cellular protein is measured (Ref. 42). The mitotic index of MCF-7 breast cancer cells was determined as described previously (Ref. 27), except that cells were incubated in the presence of drug for 16 h prior to addition of the DNA stain.
# [2] = system: Bovine brain tubulin (colchicine site); assay: Inhibition of [3H]colchicine binding to tubulin; details: 1.0 μM tubulin, 5.0 μM [3H]colchicine
# Protocol: (§2) Bovine brain tubulin was prepared and the tubulin assembly and colchicine binding assays were performed as described previously. In the assembly assay, reaction mixtures contained 1.0 mg/mL (10 μM) tubulin and varying concentrations of potential inhibitors. In the colchicine binding assay reaction mixtures contained 0.1 mg/mL (1.0 μM) tubulin, 5.0 μM [^3H]colchicine, and potential inhibitor as indicated. The vinblastine binding assay was performed as described previously for GTP binding by centrifugal gel filtration, except that a Beckman Allegra 6KR centrifuge equipped with a GH-3.8A swinging bucket rotor was used and the syringe-columns were centrifuged at 2,000 rpm (Ref. 38-41). Reaction mixtures contained 0.5 mg/mL (5.0 μM) tubulin, 5 μM [^3H]vinblastine, potential inhibitor as indicated, 0.5 mM MgCl2, 0.1 M 4-morpholineethanesulfonate (1.0 M stock solution adjusted to pH 6.9 with NaOH, and 4% (v/v) dimethyl sulfoxide. Incubation (30 min) and centrifugal gel filtration were performed at room temperature (20-22° C.).
# [3] = system: Bovine brain tubulin (vinca domain); assay: Inhibition of [3H]vinblastine binding to tubulin; details: 5.0 μM tubulin, 5 μM [3H]vinblastine
# Protocol: as §2
# [4] = system: P388 lymphocytic leukemia cell line; format: cell-based; details: murine P388 lymphocytic leukemia cell line
# Protocol: as §1
# [5] = system: DU145; assay: cells; format: cell-based, human
# Protocol: as §1
# [6] = system: BXPC-3; assay: cells; format: cell-based, human
# Protocol: as §1
# [7] = system: NCI-H460; assay: cells; format: cell-based, human
# Protocol: as §1
# [8] = system: MCF-7; assay: cells; format: cell-based, human
# Protocol: as §1
# [9] = system: KM20L2; assay: cells; format: cell-based, human
# Protocol: as §1
# [10] = system: SF-295; assay: cells; format: cell-based, human
# Protocol: as §1
# [11] = system: Neisseria gonorrhoeae ATCC 49226; assay: Broth microdilution assay, Neisseria gonorrhoeae; format: cell-based
# From the text: Compounds were screened in broth microdilution assays according to National Committee for Clinical Laboratory Standards (Ref. 43-44). Assays were repeated at least twice on separate days.
# [12] = Solubility in distilled water; format: physicochemical
molecule,measurement,setting,value
"COc1ccc(/C=C\c2cc(OC)c3c(c2)OCO3)cc1N [Compound 1a, 3,4-Methylenedioxy-5,4^1-Dimethoxy-3^1-Amino-Z-Stilbene, reference compound]",IC50,"[1]; P388, read-out: Mean",0.013 µg/mL
COc1ccc(C=Cc2cc(OC)c3c(c2)OCO3)cc1N [Compound 1b],Inhibition of colchicine binding % Inhibition ± SD,[2]; 2 μM inhibitor,85 ± 3%
same,Inhibition of vinblastine binding % Inhibition ± SD,[3]; 10 μM inhibitor,0%
same,Inhibition of vinblastine binding % Inhibition ± SD,[3]; 80 μM inhibitor,0%
"CC[C@H](C)[C@@H]([C@@H](CC(=O)N1CCC[C@H]1[C@H](OC)[C@@H](C)C(=O)N[C@@H](Cc1ccccc1)c1nccs1)OC)N(C)C(=O)[C@@H](NC(=O)[C@H](C(C)C)N(C)C)C(C)C [Compound 4a, Dolastatin 10]",Inhibition of colchicine binding % Inhibition ± SD,[2]; 2 μM inhibitor,13 ± 5%
same,Inhibition of vinblastine binding % Inhibition ± SD,[3]; 10 μM inhibitor,96 ± 0.7%
"CC[C@H](C)[C@@H]([C@@H](CC(=O)N1CCC[C@H]1[C@H](OC)[C@@H](C)C(=O)O)OC)N(C)C(=O)[C@@H](NC(=O)[C@H](C(C)C)N(C)C)C(C)C [Compound 4b, Dov-Val-Dil-Dap]",Inhibition of colchicine binding % Inhibition ± SD,[2]; 50 μM inhibitor,5.2 ± 3%
same,Inhibition of vinblastine binding % Inhibition ± SD,[3]; 10 μM inhibitor,16 ± 6%
same,Inhibition of vinblastine binding % Inhibition ± SD,[3]; 80 μM inhibitor,68 ± 0.4%
"COc1ccc(/C=C\c2cc(OC)c3c(c2)OCO3)cc1NC(=O)[C@H](Cc1ccc(OP(=O)(OCc2ccccc2)OCc2ccccc2)cc1)NP(=O)(OCc1ccccc1)OCc1ccccc1 [Compound 5, 3,4-Methylenedioxy-5,4′-dimethoxy-3′-[O,N^α-di(bis-benzylphosphoryl)-L-Tyr]-amido-Z-stilbene]",Leukemia P388 ED50,[4],>10 µg/mL
"COc1ccc(/C=C\c2cc(OC)c3c(c2)OCO3)cc1NC(=O)[C@H](Cc1ccc(OC(C)(C)C)cc1)NC(=O)OCc1ccccc1 [Compound 7, 3,4-Methylenedioxy-5,4′-dimethoxy-3′-(O-tert-butyl-N^α-Z-L-Tyr)-amido-Z-stilbene]",Prostate DU145 GI50,[5],0.39 µg/mL
same,Pancreas BXPC-3 GI50,[6],0.049 µg/mL
same,Lung-NSC NCI-H460 GI50,[7],0.41 µg/mL
same,Breast MCF-7 GI50,[8],0.36 µg/mL
same,Colon KM20L2 GI50,[9],1.8 µg/mL
same,CNS SF-295 GI50,[10],0.44 µg/mL
same,Mean,[1]; mean over the cell lines of Table 2,0.61 µg/mL
same,Leukemia P388 ED50,[4],0.380 µg/mL
"COc1ccc(/C=C\c2cc(OC)c3c(c2)OCO3)cc1NC(=O)[C@H](CC(=O)OC(C)(C)C)NC(=O)OC(C)(C)C [Compound 10, 3,4-Methylenedioxy-5,4′-dimethoxy-3′-(O^β-tert-butyl-N^α-Boc-L-Asp)-amido-Z-stilbene]",GI50,"[5]; Homo sapiens, DU-145, read-out: Prostate DU145 GI50",3 µg/mL
same,GI50,"[6]; Homo sapiens, read-out: Pancreas BXPC-3 GI50",3.4 µg/mL
same,GI50,"[7]; Homo sapiens, read-out: Lung-NSC NCI-H460 GI50",3.8 µg/mL
same,GI50,"[8]; Homo sapiens, MCF7, read-out: Breast MCF-7 GI50",2.4 µg/mL
same,GI50,"[9]; Homo sapiens, KM-20L2, read-out: Colon KM20L2 GI50",2.3 µg/mL
same,GI50,"[10]; Homo sapiens, read-out: CNS SF-295 GI50",1.7 µg/mL
same,IC50,"[1]; P388, mean over the cell lines of Table 2, read-out: Mean",2.4 µg/mL
same,Leukemia P388 ED50,[4],0.385 µg/mL
"Sodium 3,4-methylenedioxy-5,4′-dimethoxy-3′-(L-Tyr)-amido-Z-stilbene 3′-O,N^α-diphosphate [Compound 6]",Prostate DU145 GI50,[5],>1 µg/mL
same,Lung-NSC NCI-H460 GI50,[7],>1 µg/mL
same,Breast MCF-7 GI50,[8],1.3 µg/mL
same,Colon KM20L2 GI50,[9],>1 µg/mL
same,CNS SF-295 GI50,[10],>1 µg/mL
same,MIC,[11],4 µg/mL
same,Solubility,[12]; 1 mL distilled water at 25° C.,<100 µg/mL
same,water solubility (in words),[12]; water,only sparing water solubility
same,Leukemia P388 ED50,[4],0.270 µg/mL

# Source: patent US20090221666A1, “STILBENE DERIVATIVES AND METHODS OF INHIBITING CANCER CELL GROWTH AND MICROBIAL GROWTH” (priority 2005, published 2009)
